{"source": "patent US20040054130A1", "about": "“Insulin potentiating peptides” (priority 2000, published 2004)", "key": {"[1]": {"test_system": "C57BL/6J ob/ob mice", "test": "Chronic administration (14 day mini-pump): body weight, food intake, plasma glucose", "type": "in vivo, mouse", "description": "The effects of chronic administration of peptide 3 in the C57Bl/6J ob/ob diabetic model were evaluated by measurements of a number of parameters, including body weight, food intake, plasma glucose levels, plasma insulin levels, intraperitoneal glucose tolerance test and glucose uptake by adipose tissue (ex vivo). Male and female C57BL/6J ob/ob mice aged 12-15 weeks old were used. Fasting blood glucose levels were determined for all mice 14 days prior to experimentation. Only mice with fasting blood glucose levels >7.0 mmol/l were used in the study. Mice selected for this experiment were initially fasted for 4 hours, then anaesthetized with a single injection of sodium pentobarbitone (35 mg/kg). A blood sample was collected from each mouse by eye-bleed for the assessment of plasma glucose and insulin levels (day 0). Collected blood samples were stored at −20° C. until analysis was performed. A single Alzet mini-pump (#1002, Alzet, USA) containing either sterile saline (100 μl; n=14) or peptide 3 (20 μmol/kg dissolved in 100 μl saline; n=14) was inserted under the skin between the scapula of the mice. The incision was clamped and disinfected using iodine. The pumps were left for 14 days, and 5 body-weight, and food measurements were recorded during this period, at days 0, 4, 7, 10 and 14. Blood samples were collected on day 0 and 14 days post-saline (n=5) or peptide 3 (n=4) administration for plasma glucose analysis. The results reported below are expresses as mean +/− standard error."}, "[2]": {"test_system": "C57BL/6J ob/ob mice", "test": "Intraperitoneal glucose tolerance test (IPGTT) after chronic administration", "type": "in vivo, mouse", "description": "An intraperitoneal glucose tolerance test was conducted to determine whether the clearance of a glucose load was enhanced. […], five receiving saline and five receiving peptide 3. At 14 days after chronic administration of saline or peptide 3, mice were fasted for 4 hours, then anaesthetized and eye-bled for day 14 plasma metabolite analysis. Half of each saline or peptide 3 treatment group was given a single intraperitoneal injection of glucose (1 g/kg dissolved in saline), and the other half saline (equivalent dose). Mice were eye-bled at 30, 60 and 120 minutes after glucose administration, and blood glucose levels were determined."}, "[3]": {"conditions": "20 μmol/kg by mini-pump, 14 days"}}, "note": "Square brackets hold non-standard residues; d marks the D form. Ends that are not written are not given here."}
{"substance": "Arg-D-Ala-Phe-Phe-NH2 (R[dA]FF-NH2; N-terminus assumed; SMILES C[C@@H](NC(=O)[C@@H](N)CCCNC(=N)N)C(=O)N[C@@H](Cc1ccccc1)C(=O)N[C@@H](Cc1ccccc1)C(N)=O) [Peptide 3]", "values": [{"measurement": "body weight gain vs saline-infused mice", "setting": "[1]; [3]", "value": "no significant difference"}, {"measurement": "food intake vs saline-infused mice", "setting": "[1]; [3]", "value": "no significant difference"}, {"measurement": "plasma glucose levels vs saline-infused control mice", "setting": "[1]; continuous infusion 14 days (P<0.025)", "value": "significantly decreased"}, {"measurement": "reduction in plasma glucose levels", "setting": "[1]; day 0 to day 14, 4 h fasted", "value": "11.60 ± 3.63", "unit": "mmol/L"}, {"measurement": "increase in plasma glucose after glucose bolus", "setting": "[2]; 30 min after 1 g/kg glucose i.p.", "value": 115, "unit": "%"}, {"measurement": "reduction of blood glucose compared to saline-treated mice", "setting": "[2]; 120 min after glucose injection", "value": 47, "unit": "%"}, {"measurement": "lower basal blood glucose level compared to saline-treated mice", "setting": "[2]; prior to glucose injection, day 14", "value": 46.1, "unit": "%"}]}
